The results in this text go back to PMC12040169 (PLOS Biology, 2025).

This data set can be described thus: in vitro. Particulars: human, hela cells, % viability.
The viability is a read-out of living cells in per cent, often relative to untreated cells. `Cc1sc2nc(C)n(C3CCNCC3)c(=O)c2c1C` [CBK282421]: the viability at 28.5 h, 10 µM came out at 113%. For `CC(C)C(=O)N1CCC(n2nc(-c3cccs3)oc2=O)CC1` [CBK282422], the viability at 28.5 h, 10 µM came out at 103%. Turning to `CC(C)(C)C(=O)N1CCC(n2nc(-c3cccs3)oc2=O)CC1` [CBK282423], the viability at 28.5 h, 10 µM was determined as 88%. With `C#CCNC(=O)C1CCCN(c2nc3ccccc3n2CC)C1` (stereo not drawn) [CBK282433], the viability at 28.5 h, 10 µM came to 90.5%. The same measure for `CC(NC(=O)c1ncoc1-c1ccc2ccccc2c1)c1cccnc1` (stereo not drawn) [CBK282441]: 94.2%; for `CC(C)C(NC(=O)c1cccc(-n2cnnc2)c1)c1cccs1` (stereo not drawn) [CBK282442]: 111%; for `Cc1c(-c2ccccc2)n[nH]c1C(=O)NCCCc1ccccn1` [CBK282445]: 89%. Turning to `C=CCC1(CC=C)CCN1C(=O)c1cc(-c2ccccn2)n[nH]1` [CBK282448], the viability at 28.5 h, 10 µM is 106%.

Turning to `CC(C)NC(=O)Cn1c(-c2cccs2)cc2cccnc21` [CBK282454], the viability at 28.5 h, 10 µM was determined as 97.3%.

As for `CC(C)(C)NC(=O)Cn1c(-c2cccs2)cc2cccnc21` [CBK282455], the viability at 28.5 h, 10 µM stood at 97.1%. Consider `CCCc1cc(C(=O)NC(c2ccccc2)c2cccnc2)[nH]n1` (stereo not drawn) [CBK282462], for which the viability at 28.5 h, 10 µM turned out to be 93.8%. To `CCC(=O)N1CCC2(CC1)CNC(=O)c1cc(C)ccc1O2` [CBK282468] belongs 85.2%; to `Cc1ccc(C2(CN3CCN(Cc4cnc(C)n4C)CC3)CC2)cc1` [CBK282469], 93.5%. To `CCN1CCCC1CN(Cc1cnn(C)c1)Cc1ccco1` (stereo not drawn) [CBK282470] belongs 96.6%. To `Cc1nn(C)cc1CN(Cc1ccc(F)cc1)CC1CCCO1` (stereo not drawn) [CBK282472] belongs 98.5%; to `Cc1nc[nH]c1CN(CCCn1ccnc1)Cc1ccccc1Cl` [CBK282473], 103%; to `CN1C(=O)C(CC(=O)NCCCc2ccc(F)cc2)c2ccccc21` (stereo not drawn) [CBK282474], 106%.

With `Cn1nc(C2CC2)cc1C(=O)NCCCN1CCCc2ccccc21` [CBK282476], the viability at 28.5 h, 10 µM amounted to 90.7%. The same measure for `Cc1nc2ccc(C(=O)NCCn3ccnc3C)cc2s1` [CBK282477]: 88.1%. The same measure for `Cc1ccc(C2(CN3CCN(Cc4cnn(C)c4)CC3)CC2)cc1` [CBK282480]: 96.3%. In the case of `Cc1ccc(CN(CCCN(C)C)Cc2nc(C)n3ccccc23)o1` [CBK282482], the viability at 28.5 h, 10 µM was 106%.

For the compound `Cc1ccc(C)c2c(C)c(C(=O)NCC[S+](C)[O-])[nH]c12` (stereo not drawn) [CBK282484], the viability at 28.5 h, 10 µM worked out at 76.5%. The same measure for `Cc1[nH]c2c(C)cccc2c1CC(=O)NC1CCCN(C)C1` (stereo not drawn) [CBK282485]: 74.1%; for `Cc1nc2ccc(C(=O)NC(C)Cc3cccs3)cc2[nH]1` (stereo not drawn) [CBK282487]: 86.8%; for `Cc1nc[nH]c1CN(Cc1cccc(F)c1)Cc1ccco1` [CBK282493]: 75.7%. Regarding `COc1cccc(CN(Cc2ccco2)Cc2[nH]cnc2C)c1` [CBK282495], the viability at 28.5 h, 10 µM was 81.4%. As for `COc1cccc(CN(Cc2ccco2)Cc2cncn2C)c1` [CBK282497], the viability at 28.5 h, 10 µM is 102%. `O=C(Nc1ccc(Oc2cccnc2)cc1)C1CCCN1` (stereo not drawn) [CBK282498]: the viability at 28.5 h, 10 µM was 110%. The same measure for `COc1cc(NC(=O)C2CCCN2)ccc1-n1cccc1` (stereo not drawn) [CBK282500]: 85.4%. In the case of `Cc1n[nH]c(C)c1CNC(=O)C1CCN(Cc2ccc(F)cc2)CC1` [CBK282502], the viability at 28.5 h, 10 µM was found to be 92%. The same measure for `Cc1nc2ccc(C(=O)NC3CCCOC3)cc2s1` (stereo not drawn) [CBK282509]: 82.8%.

Turning to `OC(CN1CCC(O)(c2ccc(F)cc2)CC1)c1ccc(F)cc1` (stereo not drawn) [CBK282510], the viability at 28.5 h, 10 µM worked out at 79%. As for `CC(=O)c1cn(CCC(=O)NC2CCCOC2)c2ccccc12` (stereo not drawn) [CBK282515], the viability at 28.5 h, 10 µM is 114%. With `CN1CCCC(NC(=O)C2CCN(Cc3ccc(F)cc3)CC2)C1` (stereo not drawn) [CBK282516], the viability at 28.5 h, 10 µM stood at 119%. To `CCCN1C[C@H](NC(=O)C2CC2)[C@@H](c2ccc(OC)cc2)C1` [CBK282518] belongs 116%; to `O=C(NC1CCCOC1)C1CCN(Cc2ccccc2Cl)CC1` (stereo not drawn) [CBK282520], 107%; to `CCC(CC(=O)NC1CCCOC1)c1c[nH]c2ccccc12` (stereo not drawn) [CBK282521], 119%. For the compound `CC(Cc1cccs1)NC(=O)c1cc2c([nH]c1=O)CCCCC2` (stereo not drawn) [CBK282523], the viability at 28.5 h, 10 µM worked out at 109%. To `C=CCC1(CC=C)CCN1C(=O)c1cc2c([nH]c1=O)CCCCC2` [CBK282524] belongs 103%; to `Cc1nc[nH]c1CN(Cc1cccc(F)c1)CC1CCCO1` (stereo not drawn) [CBK282525], 105%.

As to `C=Cn1ncc(CN2CCN(C3CCCCC3)C(=O)C2)c1C` [CBK282526], the viability at 28.5 h, 10 µM was 107%. On to `CC(=O)c1cc(C(=O)Nc2cnn(Cc3ccc(F)cc3)c2)cs1` [CBK282528], for which the viability at 28.5 h, 10 µM stood at 104%. To `CC(=O)c1cc(C(=O)N2CCC(O)(c3ccccc3C)CC2)cs1` [CBK282532] belongs 92.8%. Regarding `Cc1c(C(=O)NCc2cc(C3CC3)[nH]n2)[nH]c2c(Cl)cccc12` [CBK282533], the viability at 28.5 h, 10 µM amounted to 70.2%. For `CCCN1CCC(CNC(=O)c2cc(C3CC3)nn2C)CC1` [CBK282536], the viability at 28.5 h, 10 µM came to 101%. As to `CCc1nc2ccc(NC(=O)c3csc(C(C)=O)c3)cc2[nH]1` [CBK282538], the viability at 28.5 h, 10 µM is 114%. Regarding `Cc1c(C(=O)N2CCN(C3CCCCC3)C(=O)C2)[nH]c2ccccc12` [CBK282539], the viability at 28.5 h, 10 µM stood at 99.3%. Consider `COc1ccc2cc(C(=O)NCCCc3ccccn3)n(C)c2c1` [CBK282545], for which the viability at 28.5 h, 10 µM came to 103%. To `Cc1nn(CCC(=O)NC(c2ccccc2)c2cccnc2)c(C)c1C` (stereo not drawn) [CBK282547] belongs 86.3%; to `Cc1cc(C(=O)NCCn2ccc(C)n2)c2cccc(Cl)c2n1` [CBK282549], 79.6%. To `Cc1cc(C(=O)NCCCC2CCOC2)c2cccc(Cl)c2n1` (stereo not drawn) [CBK282550] belongs 91.7%; to `COCCNC(=O)Cn1c(-c2cccs2)cc2cccnc21` [CBK282554], 109%. To `C[S+]([O-])CCNC(=O)Cn1c(-c2cccs2)cc2cccnc21` (stereo not drawn) [CBK282556] belongs 89.3%.

Take `COCC(C)NC(=O)Cn1c(-c2cccs2)cc2cccnc21` (stereo not drawn) [CBK282557]: the viability at 28.5 h, 10 µM was determined as 81.8%.

With `CN1CCN(C(=O)Cn2c(-c3cccs3)cc3cccnc32)CC1` [CBK282558], the viability at 28.5 h, 10 µM stood at 97%. To `CC(=O)c1cc(C(=O)N(C)CCOc2ccccc2)cs1` [CBK282560] belongs 99.6%; to `C=Cn1cc(CN2CCN(C3CCCCC3)C(=O)C2)c(C)n1` [CBK282561], 109%. On to `CN1CCCC(NC(=O)c2cc(-c3cccs3)no2)C1` (stereo not drawn) [CBK282564], for which the viability at 28.5 h, 10 µM worked out at 87.2%.

On to `O=C(NC1CCCOC1)c1cc(-c2cccs2)no1` (stereo not drawn) [CBK282565], for which the viability at 28.5 h, 10 µM amounted to 82%.

Regarding `CC(C)c1cc(C(=O)NCC2CCCN(C(C)C)C2)n(C)n1` (stereo not drawn) [CBK282566], the viability at 28.5 h, 10 µM stood at 95.8%. As to `CC(C)c1cc(C(=O)N(C)Cc2cccc3ncccc23)n(C)n1` [CBK282567], the viability at 28.5 h, 10 µM is 86.4%.

Turning to `CN1Cc2ccccc2CC1C(=O)N1CCc2ncc(Cl)cc2C1` (stereo not drawn) [CBK282568], the viability at 28.5 h, 10 µM was found to be 85.5%.

With `CC(C)N1CCC(CNC(=O)Cn2ccc3ccc(F)cc32)CC1` [CBK282571], the viability at 28.5 h, 10 µM is 89.9%. To `C=Cn1ncc(CN2CCc3[nH]c4ccc(OCC)cc4c3C2)c1C` [CBK282574] belongs 89.7%; to `Cc1nc(C)n(C(C)CNC(=O)Cc2coc3cc(C)c(C)cc23)n1` (stereo not drawn) [CBK282577], 106%. Consider `Cc1ccn(CCNC(=O)Cc2coc3cc(C)c(C)cc23)n1` [CBK282578], for which the viability at 28.5 h, 10 µM came out at 107%.

For the compound `CC1(C(=O)Nc2cnn(Cc3ccc(F)cc3)c2)CCCO1` (stereo not drawn) [CBK282585], the viability at 28.5 h, 10 µM was determined as 104%. The same measure for `Cc1nc(-c2ccccc2)c(CC(=O)NC2CCCOC2)s1` (stereo not drawn) [CBK282586]: 93.4%.

As for `CC(=O)N1CCCc2cc(C(O)CN3CCC(C)CC3)ccc21` (stereo not drawn) [CBK282588], the viability at 28.5 h, 10 µM turned out to be 87.3%. To `Cc1c(CN(Cc2ccc(F)cc2)CC2CCCO2)cnn1C` (stereo not drawn) [CBK282589] belongs 86%. The same measure for `CC(=O)NC1CCN(CC2(c3cccc(F)c3)CCCC2)CC1` [CBK282590]: 95.7%. Consider `COC(=O)CCn1c(-c2ccncc2)cc2cccnc21` [CBK282592], for which the viability at 28.5 h, 10 µM stood at 65.2%. Consider `COC(=O)CCn1c(-c2cccnc2C)cc2cccnc21` [CBK282593], for which the viability at 28.5 h, 10 µM was 105%. To `CC(C)n1nccc1C(=O)NC1CCN(Cc2cccc(F)c2)CC1` [CBK282596] belongs 84.5%; to `OCCN(Cc1cccs1)Cc1c[nH]nc1-c1cccs1` [CBK282599], 86%. As for `CCCn1nc(C)c(CN(C)Cc2n[nH]c3c2CCCC3)c1C` [CBK282600], the viability at 28.5 h, 10 µM came to 95.4%.

Consider `CN1CCC(CNC(=O)C2(c3ccccc3F)CC2)(N(C)C)CC1` [CBK282604], for which the viability at 28.5 h, 10 µM amounted to 91.6%. The same measure for `Cc1ccn(CCNC(=O)c2[nH]c3c(Cl)cccc3c2C)n1` [CBK282608]: 97.9%; for `Cc1ccc2c(c1)c(C)c(C(=O)NCCn1ccc(C)n1)n2C` [CBK282609]: 106%; for `CN1C[C@]2(CC[C@@H](C(=O)NC3CC3)CC2)Oc2ccccc2C1=O` [CBK282610]: 102%. The same measure for `Cc1nc(C)n(C(C)CNC(=O)Cn2ccc3ccc(F)cc32)n1` (stereo not drawn) [CBK282612]: 95.5%; for `Cc1cc2occ(CC(=O)NCC(C)n3cncn3)c2cc1C` (stereo not drawn) [CBK282614]: 101%. With `CN1CCC(CN(C)Cc2ccc3cccc(Cl)c3n2)C1` (stereo not drawn) [CBK282615], the viability at 28.5 h, 10 µM came out at 90.2%.

Take `Cc1c(CN(C)CC2CCN(C)C2)cnn1Cc1ccccc1` (stereo not drawn) [CBK282616]: the viability at 28.5 h, 10 µM is 105%.
